Laboratory results taken from patent US11827663B2, “Use of UAP inhibitors to inhibit flux through the hexosamine biosynthetic pathway” (The Johns Hopkins University, priority 2014, dated 2023).
Entries after “also recorded” stand apart in the source; their conditions may differ. Where two headings read alike, the source gives them in different places.

Tests used:
Type in all cases: cell-based
[1] = test system: SW1990 cells; experiment: Cell count / cell proliferation assay in SW1990 cells; conditions: for IC50: Homo sapiens
Experimental: FIG. 3 depicts the result of cell count assays after two days of incubation with an exemplary compound, Ac4Glc2Bz. The cells treated with the compound are, respectively, SW1990 and PANC-1, which are pancreatic cancer cell lines. Meanwhile, control samples were treated with solvent vehicle of 2.5 μL DMSO per 1 mL of medium.
FIGS. 5A and 5B show the results of cell toxicity experiments that were conducted on SW1990 and PANC-1 cells with the analogs indicated. Cells were counted after incubation with each analog for 48 hours. Cell counts were then normalized to controls, data was log transformed, and IC50 values were calculated. […]
Cells were incubated at a range of concentrations of the UAP inhibitors (typically at 0, 10, 25, 50, 100, and 150 μM) and the number of cells were quantified, typically by automated counting (e.g., with a Coulter Counter Z2 instrument) after 1, 2, 3, or 5 days of exposure.

[2] = test system: primary human adipose stem cells (hASCs); experiment: Cell count assay in control cells (human ASCs)
Source text: FIG. 4A and FIG. 4B depict histogram results of cell count assays after two days of exposure to each analog in cancer cell lines (SW1990 and PANC-1) and in control cells (human ASCs). […] In all cases, IC50 values were greater than 300 which is the highest concentration tested, for the ACSs, while the Ac4Glc2Bz analogs and Ac4Gal2Bz analogs were effective to reduce cell numbers in both cancer cell lines.

[3] = test system: O-GlcNAc protein modification; experiment: Western blot of O-GlcNAcylation with CTD110.6; conditions: 612, GS1049, SW1990 and PANC-1 cells, 40 μM or 60 μM, 48 h
Experimental: Exemplary CTD110.6 protein expression results were obtained for 612 cells (FIG. 17A); GS1049 cells (FIG. 17B); SE1990 cells (FIG. 17C); and PANC-1 cells (FIG. 17D) with either 40 μM or 60 μM Ac4Glc2Bz.
For example, as shown in FIG. 17A-17D, Ac4Glc2Bz could change O-GlcNAcylation in a dose-dependent manner in each cell of 612 cells (FIG. 17A); GS1049 (FIG. 17B); SW1990 (FIG. 17C) and PANC-1 (FIG. 17D). In particular, the band intensities of CTD110.6 (anti-O-GlcNAc antibody) from each treated cell decreased as the concentrations of Ac4Glc2Bz treatment were increased. 3×10^5 cells were plated in 6-well plates, with 2 wells per condition tested as indicated in FIG. 17A-D. After 48 h, proteins were collected after freezing for 15 minutes at −80° C. using extraction buffer consisting of 20 mM TrisHCl, pH 7.5, 1% v/v NP-40, 2 mM EDTA, 0.1 mM phenylmethylsulfonyl fluoride, phosphatase inhibitor cocktails 2 and 3 (1×) (SIGMA), ThiametG (10 nM) (Cayman Chemical), β-hexosaminidase inhibitor (5 μM) (Millipore), sodium fluoride (1 mM), and β-glycerophosphate (1 mM). The lysed cells were scraped, collected, and incubated on ice for 20 minutes while vortexing for 5-10 s ever 5 minutes. Samples were sonicated for 5 seconds and then centrifuged at 14,000 RPM for 20 minutes at 4° C. The supernatant was removed, normalized to 1 mg/mL, and 20 μg was loaded onto a 7.5% SDS-PAGE gel. […]

[4] = test system: microRNA; experiment: qRT-PCR analysis of microRNA expression; conditions: SW1990 and 612 cells, 48 h
Experimental: FIGS. 20A-20C show qRT-PCR analysis of microRNA expression following treatment with different concentrations of Ac4Glc2Bz, for SW1990 cells of […] (FIG. 20A); for 612 cells of 191b-5p (FIG. 20B); and for SW1990 cells of 181p-5p (FIG. 20C).
The microRNAs analyzed were chosen because they regulated different aspects of cancer cell glycosylation. 3×10^5 cells per well in a 6-well plate were seeded along with the concentrations of Ac4Glc2Bz indicated. Glioblastoma cells were placed on 6-well plates precoated with laminin (1 ug/cm^2). After 48 h, miRNA was extracted using a miRNeasy kit (Qiagen), followed by cDNA synthesis and qrt-PCR using miRCURY LNA™ Universal RT microRNA PCR Starter Kit (Exiqon).

[5] = test system: c-MYC; experiment: Western blot of c-MYC; conditions: SW1990, PANC-1, 612 and GS1049 cells, 125 μM or 250 μM
Experimental: Proteins from treated cells were obtained by lysing cells in RIPA buffer (SIGMA) supplemented with Protease Inhibitor Cocktail (1:100), Phosphatase Inhibitor Cocktail 2 (SIGMA) (1:100), and Phosphatase Inhibitor Cocktail 3 (SIGMA)(1:100). SDS-PAGE was performed followed by western blotting for c-MYC (Cell Signaling) and β-actin (SIGMA).

[6] = test system: global DNA methylation; experiment: Global DNA methylation assay in SW1990 cells
Experimental: In 6-well plates, SW1990 cells were seeded (3×10^5) and were treated with Ac4Glc2Bz at the indicated concentrations. DNA from treated cells was isolated using a FitAmp Blood and Cultured Cell DNA Extraction Kit (Epigentek) followed by colormetric determination of global methylation using a MethylFlash™ Methylated DNA Quantification Kit (Epigentek). […] For instance, by reducing flux through the HBP, UAP inhibitors could exert epigenetic effects, as global DNA methylation was increased as shown in FIG. 23. Although hypermethylation of promoter sites of tumor suppressors might be common in cancer at a global scale, cancer cells are almost always characterized by hypomethylation, which the current UAP inhibitors appeared to be reversing (Epigenomics. 2009 December; 1(2): 239-259; Oncogene. 12 Aug. 2002, Volume 21, Number 35, Pages 5400-5413).

## CC(=O)OCC1OC(OC(C)=O)[C@@H](NC(=O)c2ccccc2)[C@@H](OC(C)=O)[C@@H]1OC(C)=O (stereo partly drawn) [Ac4Glc2Bz]
[1]; SW1990, 48 h, cell count after two days of incubation, FIG. 3, read-out: IC50 of reduction of cell numbers, SW1990
  IC50: ~50 µM
[1]; SW1990, cells counted after 48 hours incubation, normalized to controls, read-out: Estimated IC50 values, SW1990
  IC50: 25.8 ± 1.5 µM
[1]; in words
  effect on SW1990 cell numbers / proliferation: lowest IC50 value
[2]; Homo sapiens, 48 h, two days of exposure, 300 is the highest concentration tested
  IC50: > 300 µM
[2]; normal cells
  cytotoxicity / inhibition of normal ASCs: minimally inhibits
[3]
  O-GlcNAcylation, band intensities of CTD110.6: decreased; also recorded: changed
[4]
  microRNA expression: could be modulated
[5]
  c-MYC expression: reduce c-MYC expression in a dose-dependent manner; also recorded: altered
[6]
  global DNA methylation: promote global DNA methylation at higher doses
